# In patent US20110039799A1, “A1 ADENOSINE RECEPTOR AGONIST POLYMORPHS” (Gilead Palo Alto, Inc., priority 2009, published 2011):
# “Also recorded” adds a separate entry of the source.
# Legend:
# [1] = in vivo, US 2007/018505 Example 32; cited from earlier work
# [2] = cited from earlier work
# [3] = Water vapor sorption (dynamic vapor adsorption), hygroscopicity; format: physicochemical; conditions: adsorption/desorption 5% to 95% relative humidity
# Experimental: Water vapor sorption data were collected on a VTI SGA-100 Vapor Sorption Analyzer. Adsorption and desorption data were collected over a range of 5% to 95% relative humidity (RH) at 10% RH intervals under a nitrogen purge. The samples were not dried prior to analyses. Equilibrium criteria used for the analyses were less than 0.0100% weight change in 5 minutes, with a maximum equilibration time of 3 hours if the weight criterion was not met. Data were not corrected for the initial moisture content of the samples. NaCl and PVP were used as calibration standards.
# [4] = Solid-state stability by DSC thermogram (storage, wet granulation, direct compression, grinding); format: physicochemical; conditions: for stability when stored, in comparison to compound formed from Example 1: storage, ambient temperature and 75% relative humidity (Form III 5 months, Form IV 3 months)
# Experimental: Differential scanning calorimetry (DSC) was performed using a TA Instruments differential scanning calorimeter either Q1000 or Q2000. The sample was placed into an aluminum DSC pan, and the weight accurately recorded. The pan was covered with a lid (sometimes the lid was perforated with a (laser) pinhole to allow for pressure release), and then either crimped or hermetically sealed. The sample cell was equilibrated at either 25° C. (Q2000) or 40° C. (Q1000) and heated under a nitrogen purge at a rate of 10° C./min, up to a final temperature of either 180 (Q1000)° C. or 250° C. (Q2000). Indium metal was used as the calibration standard.
solid-state stability by DSC thermogram when subjected to direct compression and grinding [4],"stability when stored, in comparison to compound formed from Example 1 [4]",solid-state stability by DSC thermogram when subjected to wet granulation [4],SMILES,hygroscopicity by dynamic vapor adsorption [3],also measured
,,,"O[C@@H]1[C@H](O)[C@@H](CSc2ccccc2F)O[C@H]1n1cnc2c(N[C@@H]3CCC[C@H]3O)ncnc21 [GS-9667, 2-{6-[((1R,2R)-2-hydroxycyclopentyl)amino]purin-9-yl}(4S,5S,2R,3R)-5-[(2-fluorophenylthio)methyl]oxolane-3,4-diol]",,circulating free fatty acides (FFA) [1]: lowering; insulin sensitivity [1]: improving; serum triglyceride (TG) levels [1]: lowering
,,,"Nc1ncnc2c1ncn2[C@@H]1O[C@H](CO)[C@@H](O)[C@H]1O [adenosine, Adenosine]",,half-life [2]: less than 10 seconds
not affected,enhanced stability,not affected,"O[C@@H]1[C@H](O)[C@@H](CSc2ccccc2F)O[C@H]1n1cnc2c(N[C@@H]3CCC[C@H]3O)ncnc21 [Form III, 2-{6-[((1R,2R)-2-hydroxycyclopentyl)amino]purin-9-yl}(4S,5S,2R,3R)-5-[(2-fluorophenylthio)methyl]oxolane-3,4-diol]",non-hygroscopic; also recorded: not hygroscopic,"stability to moisture, mechanical stress, pharmaceutical processing, and temperature changes, relative to other crystalline forms ([4]; general statement): superior"
,enhanced stability,,"O[C@@H]1[C@H](O)[C@@H](CSc2ccccc2F)O[C@H]1n1cnc2c(N[C@@H]3CCC[C@H]3O)ncnc21 [Form IV, 2-{6-[((1R,2R)-2-hydroxycyclopentyl)amino]purin-9-yl}(4S,5S,2R,3R)-5-[(2-fluorophenylthio)methyl]oxolane-3,4-diol]",non-hygroscopic; also recorded: not hygroscopic,
DSC thermogram change and instability,,DSC thermogram change and instability,"O[C@@H]1[C@H](O)[C@@H](CSc2ccccc2F)O[C@H]1n1cnc2c(N[C@@H]3CCC[C@H]3O)ncnc21 [Example 1, 2-{6-[((1R,2R)-2-hydroxycyclopentyl)amino]purin-9-yl}(4S,5S,2R,3R)-5-[(2-fluorophenylthio)methyl]oxolane-3,4-diol]",high hygroscopicity,DSC thermogram upon storage ([4]; storage at 40° C. and 75% relative humidity for 2 months): DSC thermogram change
